Values of other authors as cited in patent US20180303793A1, “METHODS AND COMPOSITIONS FOR TREATING TRAUMATIC BRAIN INJURY” (SCYTHIAN BIOSCIENCES INC., priority 2015, published 2018).

Settings: single agent

For `CCCCCCC(C)(C)c1cc(O)c2c(c1)OC(C)(C)[C@H]1CC=C(CO)C[C@H]21` [dexanabinol, 7-hydroxy-delta6-tetrahydrocannabinol 1,1-dimethylheptyl], the intracranial pressure (one prior study) is given as “lowered intracranial pressure” and the “gliosis and the subsequent immune cascade” value (other prior studies) is given as “did not inhibit gliosis”.
